Measured values: ChEMBL document CHEMBL4613271, “Application of Atypical Acetyl-lysine Methyl Mimetics in the Development of Selective Inhibitors of the Bromodomain-Containing Protein 7 (BRD7)/Bromodomain-Containing Protein 9 (BRD9) Bromodomains” (J Med Chem, 2020)

Tests used:
[1] = Chromatographic hydrophobicity index, logD of the compound at pH 7.4 by HPLC analysis; assay type: physicochemical; conditions: buffer
[2] = organism: Homo sapiens; experiment: Selectivity index, ratio of IC50 for binding affinity to BRD4 (1) (unknown origin) N-terminal bromodomain to IC50 for binding affinity to BRD9 (unknown origin) N-terminal bromodomain
[3] = target: T1, Bromodomain-containing protein 9 (Homo sapiens, UniProt Q9H8M2); experiment: Binding affinity to BRD9 (unknown origin) N-terminal bromodomain by TR-FRET assay
T1 sequence (Q9H8M2 whole entry): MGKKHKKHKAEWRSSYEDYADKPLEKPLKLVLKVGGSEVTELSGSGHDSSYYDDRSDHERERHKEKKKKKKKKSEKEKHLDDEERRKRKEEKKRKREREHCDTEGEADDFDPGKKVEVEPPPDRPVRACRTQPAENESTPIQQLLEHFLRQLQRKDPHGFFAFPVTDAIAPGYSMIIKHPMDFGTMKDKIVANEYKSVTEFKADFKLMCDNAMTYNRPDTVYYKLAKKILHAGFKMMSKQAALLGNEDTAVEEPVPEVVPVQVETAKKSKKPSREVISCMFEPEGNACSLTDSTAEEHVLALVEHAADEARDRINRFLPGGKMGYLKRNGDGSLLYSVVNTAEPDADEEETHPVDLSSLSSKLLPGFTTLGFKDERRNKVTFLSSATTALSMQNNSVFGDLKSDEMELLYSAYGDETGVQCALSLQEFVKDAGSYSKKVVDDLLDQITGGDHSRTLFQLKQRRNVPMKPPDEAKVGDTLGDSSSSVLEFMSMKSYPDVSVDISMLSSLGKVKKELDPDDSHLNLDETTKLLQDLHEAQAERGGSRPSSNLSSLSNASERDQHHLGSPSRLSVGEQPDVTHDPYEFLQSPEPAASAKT

[4] = target: T2, Bromodomain-containing protein 4 (Homo sapiens, UniProt O60885); experiment: Binding affinity to BRD4 (1) (unknown origin) N-terminal bromodomain by TR-FRET assay
[5] = target: T2, Bromodomain-containing protein 4; experiment: Binding affinity to human partial length BRD4 (1) (N44 to E168 residues) expressed in bacterial expression system by BROMOscan assay
[6] = target: T1, Bromodomain-containing protein 9
Description: Binding affinity to human partial length BRD9 (R130 to V259 residues) expressed in bacterial expression system by BROMOscan assay

[7] = target: T3, Peregrin (Homo sapiens, UniProt P55201); experiment: Binding affinity to human partial length BRPF1 (E627 to G740 residues) expressed in bacterial expression system by BROMOscan assay
T3 sequence (P55201 whole entry): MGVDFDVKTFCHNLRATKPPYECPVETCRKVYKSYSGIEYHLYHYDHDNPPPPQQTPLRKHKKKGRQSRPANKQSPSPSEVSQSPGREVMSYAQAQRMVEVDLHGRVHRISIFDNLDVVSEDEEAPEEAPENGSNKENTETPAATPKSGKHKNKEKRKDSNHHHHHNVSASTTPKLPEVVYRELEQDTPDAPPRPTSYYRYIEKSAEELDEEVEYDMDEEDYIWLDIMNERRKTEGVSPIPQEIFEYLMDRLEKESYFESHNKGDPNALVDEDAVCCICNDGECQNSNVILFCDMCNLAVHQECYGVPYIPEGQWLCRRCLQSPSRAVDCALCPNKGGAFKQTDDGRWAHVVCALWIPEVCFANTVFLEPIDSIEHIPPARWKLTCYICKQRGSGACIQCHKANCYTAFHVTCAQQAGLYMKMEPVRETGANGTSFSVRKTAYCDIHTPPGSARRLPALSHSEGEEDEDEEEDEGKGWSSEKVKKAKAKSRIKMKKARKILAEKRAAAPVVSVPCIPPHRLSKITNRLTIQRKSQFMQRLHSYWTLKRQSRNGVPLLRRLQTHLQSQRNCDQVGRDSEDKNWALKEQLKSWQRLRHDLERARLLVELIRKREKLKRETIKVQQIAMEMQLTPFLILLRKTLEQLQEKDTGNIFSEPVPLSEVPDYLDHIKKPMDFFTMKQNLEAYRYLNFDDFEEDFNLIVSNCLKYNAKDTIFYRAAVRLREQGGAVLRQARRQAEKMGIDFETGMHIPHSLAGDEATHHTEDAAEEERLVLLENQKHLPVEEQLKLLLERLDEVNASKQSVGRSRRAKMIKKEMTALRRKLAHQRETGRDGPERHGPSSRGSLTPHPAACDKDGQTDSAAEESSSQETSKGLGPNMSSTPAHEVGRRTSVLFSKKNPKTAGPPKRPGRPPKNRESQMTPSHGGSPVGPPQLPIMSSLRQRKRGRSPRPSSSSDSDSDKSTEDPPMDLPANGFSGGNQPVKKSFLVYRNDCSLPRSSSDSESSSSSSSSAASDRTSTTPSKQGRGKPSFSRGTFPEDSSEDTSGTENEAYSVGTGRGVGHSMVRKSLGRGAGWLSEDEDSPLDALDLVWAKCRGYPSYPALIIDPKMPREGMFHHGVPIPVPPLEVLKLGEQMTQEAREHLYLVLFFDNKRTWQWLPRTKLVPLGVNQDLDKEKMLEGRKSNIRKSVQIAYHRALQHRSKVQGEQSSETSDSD

[8] = Solubility of compound by CLND method; assay type: physicochemical
[9] = Permeability by PAMPA; assay type: ADME; conditions: read-out: permeability
[10] = target: T4, Bromodomain-containing protein 9 (Homo sapiens) (UniProt Q9H8M2); experiment: Inhibition of human partial length BRD9 (R130 to V259 residues) expressed in bacterial expression system at 10 uM by BROMOscan assay relative to control
T4 sequence (whole entry): T1 sequence (Q9H8M2 whole entry)

SMILES | chromatographic logD [1] | fold selectivity [2] | IC50 [3] | IC50 [4] | Ki [5] | Ki [6] | Ki [7] | other results
Cc1c(NCc2ccccc2-c2ccccc2)cnn(C)c1=O | 4.8 | 125 | 0.1 µM | 12.6 µM |  |  |  | 
CCc1c(NCc2ccccc2N2CCN(C)CC2)cnn(C)c1=O | 2.3 |  |  |  | 7.94 µM | 0.0794 µM | 6.31 µM | 
CCCCn1cc(-c2cccc(C(F)(F)F)c2)c2sc(C(=N)NC3CCS(=O)(=O)CC3)cc2c1=O |  |  |  |  |  | 0.01 µM |  | 
C/C=C/Cc1c(NCc2ccccc2N2CCN(C)CC2)cnn(C)c1=O | 3.1 |  |  |  | 3.98 µM | 0.0398 µM | > 10 µM | 
Cc1ccccc1CNc1cnn(C)c(=O)c1C | 3.6 | 63 | 0.398 µM | 25.1 µM |  |  |  | 
Cc1c(NCc2ccccc2N2CCNCC2)cnn(C)c1=O | 0.7 | > 250 | 0.2 µM | > 50.1 µM |  |  |  | 
Cc1cccc(CNc2cnn(C)c(=O)c2Cl)c1 | 4 | 8 | 2.51 µM | 20 µM |  |  |  | 
CN1CCN(c2ccccc2CNc2cnn(C)c(=O)c2)CC1 | 1.1 |  |  |  |  |  |  | solubility kinetic [8]: ≥ 150 µg/mL; IC50 [5]: > 50.1 µM; Papp [9]: 14 ×10⁻⁶ cm/s; IC50 [6]: > 50.1 µM
Cc1c(Nc2cccc3c2CCN(C)C3)cnn(C)c1=O |  |  |  | 39.8 µM |  | 0.158 µM |  | 
C=C[C@H](C)c1c(NCc2ccccc2N2CCN(C)CC2)cnn(C)c1=O | 3.1 |  |  |  | > 10 µM | 0.316 µM | > 10 µM | 
Cc1ccc(CNc2cnn(C)c(=O)c2Cl)cc1 | 4 | 16 | 0.794 µM | 12.6 µM |  |  |  | 
Cc1c(NCc2ccccc2N2CCOCC2)cnn(C)c1=O | 3.2 | 200 | 0.1 µM | 20 µM |  |  |  | 
CCCCCc1c(NCc2ccccc2N2CCN(C)CC2)cnn(C)c1=O | 4.2 |  |  |  | 1.58 µM | 0.158 µM | > 10 µM | 
C=CCCc1c(NCc2ccccc2N2CCN(C)CC2)cnn(C)c1=O | 3.2 |  |  |  | > 10 µM | 0.398 µM | > 10 µM | 
CC(C)c1c(NCc2ccccc2N2CCN(C)CC2)cnn(C)c1=O | 3.1 |  |  |  | > 10 µM | 0.316 µM | 7.94 µM | 
CNc1cnn(C)c(=O)c1Cl |  |  | 25.1 µM | 126 µM |  |  |  | 
Cc1c(NCc2ccccc2N2CCCOCC2)cnn(C)c1=O | 3.5 | 125 | 0.1 µM | 12.6 µM |  |  |  | 
CCCc1c(NCc2ccccc2N2CCN(C)CC2)cnn(C)c1=O | 2.8 |  |  |  | > 10 µM | 0.126 µM | > 10 µM | 
C/C=C\Cc1c(NCc2ccccc2N2CCN(C)CC2)cnn(C)c1=O | 3 |  |  |  | > 10 µM | 0.251 µM | > 10 µM | 
CC/C=C/c1c(NCc2ccccc2N2CCN(C)CC2)cnn(C)c1=O | 3.5 |  |  |  | > 10 µM | > 10 µM | > 10 µM | 
C=C[C@@H](C)c1c(NCc2ccccc2N2CCN(C)CC2)cnn(C)c1=O | 3.1 |  |  |  | > 10 µM | 0.251 µM | > 10 µM | 
CCCCc1c(Nc2cccc3c2CCN(C)C3)cnn(C)c1=O |  |  |  | > 50.1 µM |  | 0.0794 µM |  | 
CCOC(=O)Nc1cc(-c2ccc(C)c(NS(C)(=O)=O)c2)nn2c(C)nnc12 |  |  |  |  |  |  |  | inhibition [10]: 100%
CCCCc1nnc2c(NC(=O)OCC)cc(-c3ccc(C)c(NS(C)(=O)=O)c3)nn12 |  |  |  |  |  |  |  | inhibition [10]: > 95%
Cc1c(NCc2ccccc2)cnn(C)c1=O | 2.9 | 20 | 1.26 µM | 25.1 µM |  |  |  | 
C=CCc1c(NCc2ccccc2N2CCN(C)CC2)cnn(C)c1=O | 2.5 |  |  |  | > 10 µM | 0.1 µM | > 10 µM | 
Cc1c(NCc2ccccc2N2CCN(CCCN)CC2)cnn(C)c1=O | 1.2 | 250 | 0.0631 µM | 15.8 µM |  |  |  | 
